# Source: patent US20150018546A1, “HETEROCYCLIC COMPOUND HAVING ANTI-HIV ACTIVITY” (TOYAMA CHEMICAL CO., LTD., priority 2012, published 2015)
# pIC50: −log10 of the molar value.
# Tested on: HIV-1 (JRCSF)
# Assay: Anti-HIV activity in MaRBLE cells infected with HIV-1 (JRCSF), luciferase readout
# Type: cell-based
# Details: Human immunodeficiency virus 1, 168 h; MaRBLE cells (human T lymphocyte-derived HPB-M(a)) infected with HIV-1 (JRCSF); 7 days culture; rate of viral proliferation by luciferase activity; read-out: Anti-HIV activity IC50
# Description: This test was conducted with reference to Journal of Clinical Microbiology, 2007, Vol. 45, p. 477-487.
# The anti-HIV activity was evaluated using MaRBLE cells in which a luciferase gene to be expressed under the control of HIV-1 LTR and a CCR5 gene, etc. were introduced in human T lymphocyte-derived HPB-M(a).
# A fresh medium or each appropriately diluted test compound was dispensed to 96-well plates to prepare drug solution-containing plates.
# The MaRBLE cells were suspended in RPMI1640 containing 10% FCS (fetal calf serum) and penicillin/streptomycin and infected with HIV-1 (JRCSF). Then, the cells were inoculated to the drug solution-containing plates (1×10^5 cells/well). The same number of uninfected cells were inoculated as a control group to the drug solution-containing plates.
# After culture at 37° C. for 7 days in a 5% CO2 atmosphere, the intracellular luciferase activity was measured using Steady-Glo Luciferase assay system (Promega Corp.).
# The rate of viral proliferation was determined according to the following expression:
# Rate of viral proliferation(%)=(A/B)×100
# A=(Firefly luciferase activity of the compound-supplemented well)−(Firefly luciferase activity of the uninfected cells)
# B=(Firefly luciferase activity of the compound-free well)−(Firefly luciferase activity of the uninfected cells)
# IC50 of the compound was calculated by a plot with concentration as the logarithm and the rate of viral proliferation as the real part using the FORECAST function (linear regression method) of Microsoft Office Excel 2003.
row,pIC50,SMILES
1,6.96,"COc1ccc(CNc2cc(=O)n(O)c3ncncc23)cc1 [Example 1, 8-hydroxy-5-((4-methoxybenzyl)amino)pyrido[2,3-d]pyrimidin-7(8H)-one]"
2,6.92,"O=c1cc(NCc2ccccc2)c2cncnc2n1O [Example 2, 5-(benzylamino)-8-hydroxypyrido[2,3-d]pyrimidin-7(8H)-one]"
3,6.72,"O=c1cc(NCc2ccc3ccccc3c2)c2cncnc2n1O [Example 3, 8-hydroxy-5-((2-naphthylmethyl)amino)pyrido[2,3-d]pyrimidin-7(8H)-one]"
4,6.39,"O=c1cc(NCC2CCCCC2)c2cncnc2n1O [Example 4, 5-((cyclohexylmethyl)amino)-8-hydroxypyrido[2,3-d]pyrimidin-7(8H)-one]"
5,6.68,"O=c1cc(NCc2ccccn2)c2cncnc2n1O [Example 5, 8-hydroxy-5-(((pyridin-2-yl)methyl)amino)pyrido[2,3-d]pyrimidin-7(8H)-one]"
6,6.74,"O=c1cc(NCc2ccc(F)cc2F)c2cncnc2n1O [Example 6, 5-((2,4-difluorobenzyl)amino)-8-hydroxypyrido[2,3-d]pyrimidin-7(8H)-one]"
7,6.77,"CC(Nc1cc(=O)n(O)c2ncncc12)c1ccccc1 (centres unmarked) [Example 7, 8-hydroxy-5-((1-phenylethyl)amino)pyrido[2,3-d]pyrimidin-7(8H)-one]"
8,6.66,"O=c1cc(NC2CCCCC2)c2cncnc2n1O [Example 8, 5-(cyclohexylamino)-8-hydroxypyrido[2,3-d]pyrimidin-7(8H)-one]"
9,6.28,O=c1cc(NC2Cc3ccccc3C2)c2cncnc2n1O [Example 10]
10,6.55,"O=c1cc(Nc2ccccc2)c2cncnc2n1O [Example 16, 5-anilino-8-hydroxypyrido[2,3-d]pyrimidin-7(8H)-one]"
11,6.16,"O=c1cc(NCCc2ccccc2)c2cncnc2n1O [Example 17, 8-hydroxy-5-((2-phenylethyl)amino)pyrido[2,3-d]pyrimidin-7(8H)-one]"
12,6.64,"O=c1cc(NCc2cccnc2)c2cncnc2n1O [Example 18, 8-hydroxy-5-((pyridin-3-ylmethyl)amino)pyrido[2,3-d]pyrimidin-7(8H)-one]"
13,6.06,"Cc1ncnc2c1c(O)cc(=O)n2O [Example 21, 5,8-dihydroxy-4-methylpyrido[2,3-d]pyrimidin-7(8H)-one]"
14,7.33,"Cc1ncnc2c1c(NCc1ccccc1)cc(=O)n2O [Example 22, 5-(benzylamino)-8-hydroxy-4-methylpyrido[2,3-d]pyrimidin-7(8H)-one]"
15,7.37,"Cc1ncnc2c1c(NCc1cccc(C(F)(F)F)c1)cc(=O)n2O [Example 28, 8-hydroxy-4-methyl-5-((3-(trifluoromethyl)benzyl)amino)pyrido[2,3-d]pyrimidin-7(8H)-one]"
16,7.30,"Cc1ncnc2c1c(NCc1cccc(N(C)C)c1)cc(=O)n2O [Example 29, 5-((3-(dimethylamino)benzyl)amino)-8-hydroxy-4-methylpyrido[2,3-d]pyrimidin-7(8H)-one]"
17,7.12,"Cc1ncnc2c1c(NCc1ccc(N(C)C)cc1)cc(=O)n2O [Example 30, 5-((4-(dimethylamino)benzyl)amino)-8-hydroxy-4-methylpyrido[2,3-d]pyrimidin-7(8H)-one]"
18,6.64,"COc1cccc(CNc2cc(=O)n(O)c3ncnc(C)c23)c1 [Example 31, 8-hydroxy-5-((3-methoxybenzyl)amino)-4-methylpyrido[2,3-d]pyrimidin-7(8H)-one]"
19,7.54,"COc1ccc(CNc2cc(=O)n(O)c3ncnc(C)c23)cc1 [Example 32, 8-hydroxy-5-((4-methoxybenzyl)amino)-4-methylpyrido[2,3-d]pyrimidin-7(8H)-one]"
20,7.28,"COc1ccccc1CNc1cc(=O)n(O)c2ncnc(C)c12 [Example 33, 8-hydroxy-5-((2-methoxybenzyl)amino)-4-methylpyrido[2,3-d]pyrimidin-7(8H)-one]"
